The structures appear in SMILES notation.

The text below walks through data of patent publication US20250213555A1, “SUBSTITUTED TETRAHYDROFURAN ANALOGS AS MODULATORS OF SODIUM CHANNELS” (VERTEX PHARMACEUTICALS INCORPORATED, priority 2021, published 2025).

The target of this experiment is human Nav 1.8 (Homo sapiens, UniProt Q9Y5Y9). Kind of experiment: E-VIPR assay detecting and measuring Nav inhibition properties. Format: cell-based. The conditions noted are these: HEK cells expressing a truncated form of human Nav 1.8; compound numbers without "*" (not marked as run in the presence of human serum); read-out: measured IC50 value in the E-VIPR Assay. Summed up: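 Nav inhibition was read by E-VIPR: cells were electrically stimulated while coumarin/oxonol FRET emissions were recorded. Cells were HEK expressing a truncated human Nav 1.8 and co-transduced with KIR2.1, and were assayed in 25% final human serum.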
Chain of human Nav 1.8 (Q9Y5Y9 126-399 limits assumed): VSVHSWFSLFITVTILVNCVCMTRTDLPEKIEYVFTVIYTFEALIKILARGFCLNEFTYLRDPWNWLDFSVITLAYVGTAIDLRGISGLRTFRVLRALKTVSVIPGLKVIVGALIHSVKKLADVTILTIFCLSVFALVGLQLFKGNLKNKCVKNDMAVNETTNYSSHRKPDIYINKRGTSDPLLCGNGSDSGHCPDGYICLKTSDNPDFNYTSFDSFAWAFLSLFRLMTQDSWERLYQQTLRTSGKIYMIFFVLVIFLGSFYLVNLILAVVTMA
Chain of human Nav 1.8 (Q9Y5Y9 660-890 limits assumed): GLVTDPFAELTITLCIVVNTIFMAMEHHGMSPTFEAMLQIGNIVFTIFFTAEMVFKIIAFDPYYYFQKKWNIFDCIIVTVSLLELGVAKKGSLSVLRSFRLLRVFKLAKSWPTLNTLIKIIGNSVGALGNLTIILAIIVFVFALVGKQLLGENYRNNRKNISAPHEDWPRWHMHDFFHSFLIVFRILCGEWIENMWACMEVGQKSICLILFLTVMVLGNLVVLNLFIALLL
Chain of human Nav 1.8 (Q9Y5Y9 1148-1722 limits assumed): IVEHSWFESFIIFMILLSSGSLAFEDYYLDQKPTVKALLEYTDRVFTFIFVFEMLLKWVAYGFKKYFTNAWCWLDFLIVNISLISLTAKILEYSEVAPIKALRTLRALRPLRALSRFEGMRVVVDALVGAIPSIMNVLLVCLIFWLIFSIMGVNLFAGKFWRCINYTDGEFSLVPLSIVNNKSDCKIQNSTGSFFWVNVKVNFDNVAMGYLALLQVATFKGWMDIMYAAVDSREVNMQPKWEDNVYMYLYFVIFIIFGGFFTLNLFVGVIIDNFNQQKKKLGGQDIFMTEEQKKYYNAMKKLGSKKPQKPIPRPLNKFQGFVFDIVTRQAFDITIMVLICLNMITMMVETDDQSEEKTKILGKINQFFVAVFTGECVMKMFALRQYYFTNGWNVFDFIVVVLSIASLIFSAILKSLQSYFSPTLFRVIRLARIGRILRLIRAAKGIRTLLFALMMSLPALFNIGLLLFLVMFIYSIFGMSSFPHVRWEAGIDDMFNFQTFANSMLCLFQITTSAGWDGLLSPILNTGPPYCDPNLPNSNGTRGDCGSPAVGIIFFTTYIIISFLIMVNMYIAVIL
Regarding `C[C@H]1[C@@H](c2ccc(F)c(F)c2OCCn2ccnc2)[C@H](C(=O)Nc2ccnc(C(N)=O)c2)O[C@@]1(C)C(F)(F)F` [Compound 45, 4-((2R,3S,4S,5R)-3-(2-(2-(1H-imidazol-1-yl)ethoxy)-3,4-difluorophenyl)-4,5-dimethyl-5-(trifluoromethyl)tetrahydrofuran-2-carboxamido)picolinamide], the IC50 (as a rule, the concentration that inhibits the measured activity by half) was under 0.01 µM.

In the case of `COC1(C)CN(CCOc2c([C@H]3[C@H](C(=O)Nc4ccnc(C(N)=O)c4)O[C@@](C)(C(F)(F)F)[C@H]3C)ccc(F)c2F)C1` [Compound 48, 4-((2R,3S,4S,5R)-3-(3,4-difluoro-2-(2-(3-methoxy-3-methylazetidin-1-yl)ethoxy)phenyl)-4,5-dimethyl-5-(trifluoromethyl)tetrahydrofuran-2-carboxamido)picolinamide], the IC50 lay in the range of 0.01 to 0.1 µM.

For `C[C@H]1[C@@H](c2ccc(F)c(F)c2OCCN2CC[C@H](F)C2)[C@H](C(=O)Nc2ccnc(C(N)=O)c2)O[C@@]1(C)C(F)(F)F` [Compound 49, 4-((2R,3S,4S,5R)-3-(3,4-difluoro-2-(2-((S)-3-fluoropyrrolidin-1-yl)ethoxy)phenyl)-4,5-dimethyl-5-(trifluoromethyl)tetrahydrofuran-2-carboxamido)picolinamide], the IC50 was in the range of 0.01 to 0.1 µM.

Turning to `C[C@H]1[C@@H](c2ccc(F)c(F)c2OCCN2CCOC3CC32)[C@H](C(=O)Nc2ccnc(C(N)=O)c2)O[C@@]1(C)C(F)(F)F` (stereo partly drawn) [Compound 50, 4-((2R,3S,4S,5R)-3-(2-(2-(2-oxa-5-azabicyclo[4.1.0]heptan-5-yl)ethoxy)-3,4-difluorophenyl)-4,5-dimethyl-5-(trifluoromethyl)tetrahydrofuran-2-carboxamido)picolinamide], the half-inhibitory concentration (IC50) is under 0.01 µM.

Regarding `CC1CN(CCOc2c([C@H]3[C@H](C(=O)Nc4ccnc(C(N)=O)c4)O[C@@](C)(C(F)(F)F)[C@H]3C)ccc(F)c2F)CCO1` (stereo partly drawn) [Compound 51, 4-((2R,3S,4S,5R)-3-(3,4-difluoro-2-(2-(2-methylmorpholino)ethoxy)phenyl)-4,5-dimethyl-5-(trifluoromethyl)tetrahydrofuran-2-carboxamido)picolinamide], the 50% inhibitory concentration (IC50) was under 0.01 µM.

On to `COC1CN(CCOc2c([C@H]3[C@H](C(=O)Nc4ccnc(C(N)=O)c4)O[C@@](C)(C(F)(F)F)[C@H]3C)ccc(F)c2F)C1` [Compound 52, 4-((2R,3S,4S,5R)-3-(3,4-difluoro-2-(2-(3-methoxyazetidin-1-yl)ethoxy)phenyl)-4,5-dimethyl-5-(trifluoromethyl)tetrahydrofuran-2-carboxamido)picolinamide], for which the IC50 was under 0.01 µM.

As to `C[C@H]1[C@@H](c2ccc(F)c(F)c2OCCN2CC3(COC3)C2)[C@H](C(=O)Nc2ccnc(C(N)=O)c2)O[C@@]1(C)C(F)(F)F` [Compound 53, 4-((2R,3S,4S,5R)-3-(2-(2-(2-oxa-6-azaspiro[3.3]heptan-6-yl)ethoxy)-3,4-difluorophenyl)-4,5-dimethyl-5-(trifluoromethyl)tetrahydrofuran-2-carboxamido)picolinamide], the IC50 is under 0.01 µM.

For `C[C@H]1[C@@H](c2ccc(F)c(F)c2OCCN2CCC2)[C@H](C(=O)Nc2ccnc(C(N)=O)c2)O[C@@]1(C)C(F)(F)F` [Compound 54, 4-((2R,3S,4S,5R)-3-(2-(2-(azetidin-1-yl)ethoxy)-3,4-difluorophenyl)-4,5-dimethyl-5-(trifluoromethyl)tetrahydrofuran-2-carboxamido)picolinamide], the half-maximal inhibitory concentration (IC50) lay within 0.01 to 0.1 µM.

As for `C[C@H]1[C@@H](c2ccc(F)c(F)c2OCCN2C[C@H]3COC[C@H]3C2)[C@H](C(=O)Nc2ccnc(C(N)=O)c2)O[C@@]1(C)C(F)(F)F` [Compound 55, 4-((2R,3S,4S,5R)-3-(3,4-difluoro-2-(2-((3aR,6aS)-tetrahydro-1H-furo[3,4-c]pyrrol-5(3H)-yl)ethoxy)phenyl)-4,5-dimethyl-5-(trifluoromethyl)tetrahydrofuran-2-carboxamido)picolinamide], the concentration for half-maximal inhibition (IC50) is under 0.01 µM.

Take `C[C@@H]1COCCN1CCOc1c([C@H]2[C@H](C(=O)Nc3ccnc(C(N)=O)c3)O[C@@](C)(C(F)(F)F)[C@H]2C)ccc(F)c1F` [Compound 56, 4-((2R,3S,4S,5R)-3-(3,4-difluoro-2-(2-((R)-3-methylmorpholino)ethoxy)phenyl)-4,5-dimethyl-5-(trifluoromethyl)tetrahydrofuran-2-carboxamido)picolinamide]: the IC50 is under 0.01 µM.

On to `C[C@H]1[C@@H](c2ccc(F)c(F)c2OCCN2CC3(CCO3)C2)[C@H](C(=O)Nc2ccnc(C(N)=O)c2)O[C@@]1(C)C(F)(F)F` [Compound 57, 4-((2R,3S,4S,5R)-3-(2-(2-(1-oxa-6-azaspiro[3.3]heptan-6-yl)ethoxy)-3,4-difluorophenyl)-4,5-dimethyl-5-(trifluoromethyl)tetrahydrofuran-2-carboxamido)picolinamide], for which the IC50 is under 0.01 µM.

For the compound `C[C@H]1[C@@H](c2ccc(F)c(F)c2OC2COC2)[C@H](C(=O)Nc2ccnc(C(N)=O)c2)O[C@@]1(C)C(F)(F)F` [Compound 58, 4-((2R,3S,4S,5R)-3-(3,4-difluoro-2-(oxetan-3-yloxy)phenyl)-4,5-dimethyl-5-(trifluoromethyl)tetrahydrofuran-2-carboxamido) picolinamide], the IC50 was under 0.01 µM.

As for `C[C@H]1[C@@H](c2ccc(F)c(F)c2OCc2nccn2C)[C@H](C(=O)Nc2ccnc(C(N)=O)c2)O[C@@]1(C)C(F)(F)F` [Compound 61, 4-((2R,3S,4S,5R)-3-(3,4-difluoro-2-((1-methyl-1H-imidazol-2-yl)methoxy)phenyl)-4,5-dimethyl-5-(trifluoromethyl)tetrahydrofuran-2-carboxamido)picolinamide], the IC50 was under 0.01 µM.

In the case of `C[C@H]1[C@@H](c2ccc(F)c(F)c2OCCCN2CCOCC2)[C@H](C(=O)Nc2ccnc(C(N)=O)c2)O[C@@]1(C)C(F)(F)F` [Compound 62, 4-((2R,3S,4S,5R)-3-(3,4-difluoro-2-(3-morpholinopropoxy)phenyl)-4,5-dimethyl-5-(trifluoromethyl)tetrahydrofuran-2-carboxamido)picolinamide], the half-inhibitory concentration (IC50) was under 0.01 µM.

For the compound `C[C@H]1[C@@H](c2ccc(F)c(F)c2OCC2(C)COC2)[C@H](C(=O)Nc2ccnc(C(N)=O)c2)O[C@@]1(C)C(F)(F)F` [Compound 63, 4-((2R,3S,4S,5R)-3-(3,4-difluoro-2-((3-methyloxetan-3-yl)methoxy)phenyl)-4,5-dimethyl-5-(trifluoromethyl)tetrahydrofuran-2-carboxamido)picolinamide], the IC50 lay in the range of 0.01 to 0.1 µM.

Take `C[C@H]1[C@@H](c2ccc(F)c(F)c2OCC2(F)COC2)[C@H](C(=O)Nc2ccnc(C(N)=O)c2)O[C@@]1(C)C(F)(F)F` [Compound 64, 4-((2R,3S,4S,5R)-3-(3,4-difluoro-2-((3-fluorooxetan-3-yl)methoxy)phenyl)-4,5-dimethyl-5-(trifluoromethyl)tetrahydrofuran-2-carboxamido)picolinamide]: the IC50 is under 0.01 µM.

Consider `C[C@H]1[C@@H](c2ccc(F)c(F)c2OC2CCOCC2)[C@H](C(=O)Nc2ccnc(C(N)=O)c2)O[C@@]1(C)C(F)(F)F` [Compound 65, 4-((2R,3S,4S,5R)-3-(3,4-difluoro-2-((tetrahydro-2H-pyran-4-yl)oxy)phenyl)-4,5-dimethyl-5-(trifluoromethyl)tetrahydrofuran-2-carboxamido)picolinamide], for which the IC50 is under 0.01 µM.

In the case of `CNC(=O)c1cc(NC(=O)[C@@H]2O[C@@](C)(C(F)(F)F)[C@@H](C)[C@H]2c2ccc(F)c(F)c2OCC2COC2)ccn1` [Compound 66], the half-maximal inhibitory concentration (IC50) is under 0.01 µM.

Consider `C[C@H]1[C@@H](c2ccc(F)c(F)c2OCC#N)[C@H](C(=O)Nc2ccnc(C(N)=O)c2)O[C@@]1(C)C(F)(F)F` [Compound 69, 4-((2R,3S,4S,5R)-3-(2-(cyanomethoxy)-3,4-difluorophenyl)-4,5-dimethyl-5-(trifluoromethyl)tetrahydrofuran-2-carboxamido)picolinamide], for which the concentration for half-maximal inhibition (IC50) was under 0.01 µM.

`C[C@H]1[C@@H](c2ccc(F)c(F)c2OCC2COC2)[C@H](C(=O)Nc2ccnc(C(N)=O)c2)O[C@@]1(C)C(F)(F)F` [Compound 70, 4-((2R,3S,4S,5R)-3-(3,4-difluoro-2-(oxetan-3-ylmethoxy)phenyl)-4,5-dimethyl-5-(trifluoromethyl)tetrahydrofuran-2-carboxamido)picolinamide]: the IC50 was under 0.01 µM.

Turning to `C[C@H]1[C@@H](c2ccc(F)c(F)c2OCC(C)(C)CO)[C@H](C(=O)Nc2ccnc(C(N)=O)c2)O[C@@]1(C)C(F)(F)F` [Compound 71, 4-((2R,3S,4S,5R)-3-(3,4-difluoro-2-(3-hydroxy-2,2-dimethylpropoxy)phenyl)-4,5-dimethyl-5-(trifluoromethyl)tetrahydrofuran-2-carboxamido)picolinamide], the half-inhibitory concentration (IC50) fell in the range of 0.1 to 1 µM.

As for `C[C@H]1[C@@H](c2ccc(F)c(F)c2OCCCO)[C@H](C(=O)Nc2ccnc(C(N)=O)c2)O[C@@]1(C)C(F)(F)F` [Compound 72, 4-((2R,3S,4S,5R)-3-(3,4-difluoro-2-(3-hydroxypropoxy)phenyl)-4,5-dimethyl-5-(trifluoromethyl)tetrahydrofuran-2-carboxamido)picolinamide], the IC50 is under 0.01 µM.

Consider `C[C@H]1[C@@H](c2ccc(F)c(F)c2OCc2cnn(C)c2)[C@H](C(=O)Nc2ccnc(C(N)=O)c2)O[C@@]1(C)C(F)(F)F` [Compound 73, 4-((2R,3S,4S,5R)-3-(3,4-difluoro-2-((1-methyl-1H-pyrazol-4-yl)methoxy)phenyl)-4,5-dimethyl-5-(trifluoromethyl)tetrahydrofuran-2-carboxamido)picolinamide], for which the IC50 was under 0.01 µM.

Consider `C[C@H]1[C@@H](c2ccc(F)c(F)c2OCCC(C)(C)C#N)[C@H](C(=O)Nc2ccnc(C(N)=O)c2)O[C@@]1(C)C(F)(F)F` [Compound 74, 4-((2R,3S,4S,5R)-3-(2-(3-cyano-3-methylbutoxy)-3,4-difluorophenyl)-4,5-dimethyl-5-(trifluoromethyl)tetrahydrofuran-2-carboxamido)picolinamide], for which the 50% inhibitory concentration (IC50) lay in the range of 0.01 to 0.1 µM.
